Laboratory results published in patent US20110275517A1, “SYNERGISTIC HERBICIDAL COMPOSITION CONTAINING A DICAMBA DERIVATIVE AND A […]” (DOW AGROSCIENCES LLC, priority 2010, published 2011).

Columns and labels:
Assay type in all cases: in vivo
Conditions in all cases: rated after 14-21 d
[1] = system: ERICA GLY-RES (Glyphosate-resistant Conyza canadensis); experiment: Greenhouse postemergence foliar herbicidal test on ERICA GLY-RES
Description: (§1) Seeds of the desired test plant species were planted in Sun Gro MetroMix 306 planting mixture, which typically has a pH of 6.0 to 6.8 and an organic matter content of about 30 percent, in plastic pots with a surface area of 103.2 square centimeters (cm^2). […] The plants were grown for 7-36 days (d) in a greenhouse with an approximate 16 hour (h) photoperiod which was maintained at about 28° C. during the day and 26° C. during the night. Nutrients and water were added on a regular basis and supplemental lighting was provided with overhead metal halide 1000-Watt lamps as necessary. The plants were employed for testing when they reached the second or third true leaf stage.
(§2) Treatments consisted of Banvel™ (dicamba dimethylamine salt) and Durango™ herbicide (glyphosate dimethylamine salt) alone and in combinations. An aliquot of
(§3) Banvel^TM (dicamba dimethylamine salt) was placed in 25 milliliter (mL) glass vials and diluted in a volume of water to obtain 1.5 milligrams (mg) active ingredient (ai)/mL concentrated solutions. Subsequent concentrations of Banvel™ (dicamba dimethylamine salt) were obtained by dilution with an equal volume of water. Spray solutions of Durango™ herbicide (glyphosate dimethylamine salt) were prepared following the aforementioned procedure. An aliquot of Durango™ herbicide (glyphosate dimethylamine salt) was placed in 25 milliter (mL) glass vials and mixed in a volume of 100:2 w/w water/ammonium sulfate (AMS) dilution solution to obtain 1.5 milligrams (mg) active ingredient (ai)/mL concentrated solutions.
(§4) Compound requirements are based upon a 12 mL application volume at a rate of 187 liters per hectare (L/ha). Spray solutions of the Banvel^TM (dicamba dimethylamine salt) and Durango™ herbicide (glyphosate dimethylamine salt) were prepared by adding the concentrated solutions to the appropriate amount of dilution solution to form 12 mL spray solution with active ingredients in combination. Banvel™ (dicamba dimethylamine salt) and Durango™ herbicide (glyphosate dimethylamine salt) alone and in combinations were applied to the foliage of plant material with an overhead Mandel track sprayer equipped with 8002E nozzles calibrated to deliver 187 L/ha over an application area of 0.503 square meters (m^2) at a spray height of 18 inches (43 cm) above average plant canopy. Control plants were sprayed in the same manner with the solvent blank.
(§5) The treated plants and control plants were placed in a greenhouse as described above and watered by sub-irrigation to prevent wash-off of the test compounds. After 14-21 d, the condition of the test plants as compared with that of the control plants was determined visually and scored on a scale of 0 to 100 percent where 0 corresponds to no injury and 100 corresponds to complete kill.
(§6) Colby's equation was used to determine the herbicidal effects expected from the mixtures (Colby, S. R. 1967. Calculation of the synergistic and antagonistic response of herbicide combinations. Weeds 15:20-22.).
(§7) The following equation was used to calculate the expected activity of mixtures containing two active ingredients, A and B:
(§8) A=observed efficacy of active ingredient A at the same concentration as used in the mixture;
(§9) B=observed efficacy of active ingredient B at the same concentration as used in the mixture.

[2] = system: COMBE = Commelina benghalensis (Dayflower); experiment: Greenhouse postemergence foliar herbicidal test on COMBE
Description: as §1, §2, §3, §4, §5, §6, §7, §8, §9

[3] = system: CHEAL = Chenopodium album (Common lambsquarters/fat hen); experiment: Greenhouse postemergence foliar herbicidal test on CHEAL
Description: as §1, §2, §3, §4, §5, §6, §7, §8, §9

[4] = system: CHEAL GLY-RES (Glyphosate-resistant Chenopodium album); experiment: Greenhouse postemergence foliar herbicidal test on CHEAL GLY-RES
Description: as §1, §2, §3, §4, §5, §6, §7, §8, §9

[5] = system: ERICA = Conyza canadensis (horseweed/marestail); experiment: Greenhouse postemergence foliar herbicidal test on ERICA
Description: as §1, §2, §3, §4, §5, §6, §7, §8, §9

Row | SMILES | Herbicidal effect, observed (Ob), visual injury 0-100 ([1]; applied alone at 35 g/ha) [%] | Herbicidal effect, observed (Ob), visual injury 0-100 ([1]; applied alone at 70 g/ha) [%] | Herbicidal effect, observed (Ob), visual injury 0-100 ([1]; applied alone at 140 g/ha) [%] | Herbicidal effect, observed (Ob), visual injury 0-100 ([1]; applied alone at 280 g/ha) [%] | Herbicidal effect, observed (Ob), visual injury 0-100 ([2]; applied alone at 35 g/ha) [%] | Herbicidal effect, observed (Ob), visual injury 0-100 ([2]; applied alone at 70 g/ha) [%] | Herbicidal effect, observed (Ob), visual injury 0-100 ([2]; applied alone at 140 g/ha) [%] | Herbicidal effect, observed (Ob), visual injury 0-100 ([2]; applied alone at 280 g/ha) [%] | Herbicidal effect, observed (Ob), visual injury 0-100 ([3]; applied alone at 35 g/ha) [%] | Herbicidal effect, observed (Ob), visual injury 0-100 ([3]; applied alone at 70 g/ha) [%] | Herbicidal effect, observed (Ob), visual injury 0-100 ([3]; applied alone at 140 g/ha) [%] | Herbicidal effect, observed (Ob), visual injury 0-100 ([3]; applied alone at 280 g/ha) [%] | Herbicidal effect, observed (Ob), visual injury 0-100 ([4]; applied alone at 35 g/ha) [%] | Herbicidal effect, observed (Ob), visual injury 0-100 ([4]; applied alone at 70 g/ha) [%] | Herbicidal effect, observed (Ob), visual injury 0-100 ([4]; applied alone at 140 g/ha) [%] | Herbicidal effect, observed (Ob), visual injury 0-100 ([4]; applied alone at 280 g/ha) [%] | Herbicidal effect, observed (Ob), visual injury 0-100 ([5]; applied alone at 35 g/ha) [%] | Herbicidal effect, observed (Ob), visual injury 0-100 ([5]; applied alone at 70 g/ha) [%] | Herbicidal effect, observed (Ob), visual injury 0-100 ([5]; applied alone at 140 g/ha) [%] | Herbicidal effect, observed (Ob), visual injury 0-100 ([5]; applied alone at 280 g/ha) [%]
1 | COc1c(Cl)ccc(Cl)c1C(=O)O [Dicamba, 3,6-dichloro-2-methoxybenzoic acid] | 62 | 83 | 95 | 97 | 18 | 25 | 43 | 42 | 34 | 40 | 52 | 61 | 33 | 48 | 64 | 83 | 62 | 81 | 93 | 97
2 | O=C(O)CNCP(=O)(O)O [Glyphosate + AMS, N-(phosphonomethyl)glycine] | 0 | 0 | 3 | 7 | 7 | 27 | 49 | 58 | 8 | 12 | 57 | 66 | 9 | 9 | 41 | 51 | 47 | 55 | 72 | 78
